This assay has as its target VHL (Homo sapiens (Human), UniProt P40337). Kind of assay: VHL fluorescence polarization (FP) competition assay. It is filed as binding. A general note: Polarisation of emitted light reports the rotation of a fluorescent probe.

For orientation: IC50 means the concentration at which inhibition is half-maximal. The low end stands for greater potency, the high end for weaker potency. With `Cc1ncsc1-c1ccc(CNC(=O)[C@@H]2C[C@@H](O)CN2C(=O)[C@@H](NC(=O)CCC(C)C)C(C)(C)C)cc1` [Example 28, (2S,4R)-1-((S)-3,3-dimethyl-2-(4-methylpentanamido)butanoyl)-4-hydroxy-N-(4-(4-methylthiazol-5-yl)benzyl)pyrrolidine-2-carboxamide], the 50% inhibitory concentration (IC50) runs as follows: (0.25% in DMSO) 4470 nM; (1% in DMSO) 2210 nM; (10% in DMSO) 3600 nM.

`Cc1ncsc1-c1ccc(CNC(=O)[C@@H]2C[C@@H](O)CN2C(=O)[C@@H](NC(=O)c2ccccc2)C(C)(C)C)cc1` [Example 29, (2S,4R)-1-((S)-2-benzamido-3,3-dimethylbutanoyl)-4-hydroxy-N-(4-(4-methylthiazol-5-yl)benzyl)pyrrolidine-2-carboxamide]: the IC50 reads like this: (0.25% in DMSO) 2420 nM; (1% in DMSO) 905 nM; (10% in DMSO) 1850 nM.

On to `CC[C@H](C)[C@@H](C(=O)N1C[C@H](O)C[C@H]1C(=O)NCc1ccc(-c2scnc2C)cc1)N1Cc2ccccc2C1=O` [Example 30, (2S,4R)-4-hydroxy-1-((2S,3S)-3-methyl-2-(1-oxoisoindolin-2-yl)pentanoyl)-N-(4-(4-methylthiazol-5-yl)benzyl)pyrrolidine-2-carboxamide], for which the IC50 by setting is: (0.25% in DMSO) 2270 nM; (1% in DMSO) 572 nM; (10% in DMSO) 859 nM.

Compound `CC[C@H](C)[C@H](NC(=O)CCC(C)C)C(=O)N1C[C@H](O)C[C@H]1C(=O)NCc1ccc(-c2scnc2C)cc1` [Example 31, (2S,4R)-4-hydroxy-1-((2S,3S)-3-methyl-2-(4-methylpentanamido)pentanoyl)-N-(4-(4-methylthiazol-5-yl)benzyl)pyrrolidine-2-carboxamide] gave an IC50 (0.25% in DMSO) of 3220 nM, an IC50 (1% in DMSO) of 1280 nM and an IC50 (10% in DMSO) of 2110 nM.

Consider `Cc1ncsc1-c1ccc(CNC(=O)[C@@H]2C[C@@H](O)CN2C(=O)[C@@H](NCCC(C)C)C2CCCC2)cc1` [Example 32, (2S,4R)-1-((S)-2-cyclopentyl-2-(isopentylamino)acetyl)-4-hydroxy-N-(4-(4-methylthiazol-5-yl)benzyl)pyrrolidine-2-carboxamide], for which the IC50 was 2220 nM (0.25% in DMSO), 1150 nM (1% in DMSO) and 3360 nM (10% in DMSO).

For the compound `Cc1ncsc1-c1ccc(CNC(=O)[C@@H]2C[C@@H](O)CN2C(=O)[C@H](C(C)C)N2Cc3c(F)cccc3C2=O)cc1` [Example 33, (2S,4R)-1-((S)-2-(4-fluoro-1-oxoisoindolin-2-yl)-3-methylbutanoyl)-4-hydroxy-N-(4-(4-methylthiazol-5-yl)benzyl)pyrrolidine-2-carboxamide], the IC50 was 1940 nM (0.25% in DMSO), 539 nM (1% in DMSO) and 1080 nM (10% in DMSO).

In the case of `Cc1ncsc1-c1ccc(CNC(=O)[C@@H]2C[C@@H](O)CN2C(=O)[C@H](C(C)C)N2Cc3cc(C#N)ccc3C2=O)cc1` [Example 34, (2S,4R)-1-((S)-2-(5-cyano-1-oxoisoindolin-2-yl)-3-methylbutanoyl)-4-hydroxy-N-(4-(4-methylthiazol-5-yl)benzyl)pyrrolidine-2-carboxamide], the IC50 (0.25% in DMSO) came out at 2120 nM, the IC50 (1% in DMSO) came to 660 nM and the IC50 (10% in DMSO) stood at 1180 nM.

Turning to `Cc1ncsc1-c1ccc(CNC(=O)[C@@H]2C[C@@H](O)CN2C(=O)[C@H](C(C)C)N2Cc3c(C#N)cccc3C2=O)cc1` [Example 35, (2S,4R)-1-((S)-2-(4-cyano-1-oxoisoindolin-2-yl)-3-methylbutanoyl)-4-hydroxy-N-(4-(4-methylthiazol-5-yl)benzyl)pyrrolidine-2-carboxamide], the IC50 was determined as 2050 nM (0.25% in DMSO), 509 nM (1% in DMSO) and 1300 nM (10% in DMSO).

In the case of `Cc1ncsc1-c1ccc(CNC(=O)[C@@H]2C[C@@H](O)CN2C(=O)[C@@H](NC(=O)C2CCCCC2)C(C)(C)C)cc1` [Example 36, (2S,4R)-1-((S)-2-(cyclohexanecarboxamido)-3,3-dimethylbutanoyl)-4-hydroxy-N-(4-(4-methylthiazol-5-yl)benzyl)pyrrolidine-2-carboxamide], the IC50 by setting is: (0.25% in DMSO) 6540 nM; (1% in DMSO) 3550 nM; (10% in DMSO) 5480 nM.

Regarding `CSC[C@@H](C(=O)N1C[C@H](O)C[C@H]1C(=O)NCc1ccc(-c2scnc2C)cc1)N1Cc2ccccc2C1=O` [Example 37, (2S,4R)-4-hydroxy-N-(4-(4-methylthiazol-5-yl)benzyl)-1-((R)-3-(methylthio)-2-(1-oxoisoindolin-2-yl)propanoyl)pyrrolidine-2-carboxamide], the IC50 runs as follows: (0.25% in DMSO) 1900 nM; (1% in DMSO) 20600 nM; (10% in DMSO) 7410 nM.

Regarding `Cc1ncsc1-c1ccc(CNC(=O)[C@@H]2C[C@@H](O)CN2C(=O)[C@H](C2CCCC2)N2Cc3ccccc3C2=O)cc1` [Example 38, (2S,4R)-1-((S)-2-cyclopentyl-2-(1-oxoisoindolin-2-yl)acetyl)-4-hydroxy-N-(4-(4-methylthiazol-5-yl)benzyl)pyrrolidine-2-carboxamide], the IC50 came out at 2190 nM (0.25% in DMSO), 758 nM (1% in DMSO) and 1090 nM (10% in DMSO).

On to `Cc1ncsc1-c1ccc([C@H](C)NC(=O)[C@@H]2C[C@@H](O)CN2C(=O)[C@H](C(C)C)N2Cc3ccccc3C2=O)cc1` [Example 39, (2S,4R)-4-hydroxy-N-[(1S)-1-[4-(4-methyl-1,3-thiazol-5-yl)phenyl]ethyl]-1-[(2S)-3-methyl-2-(1-oxo-2,3-dihydro-1H-isoindol-2-yl)butanoyl]pyrrolidine-2-carboxamide], for which the IC50 runs as follows: (0.25% in DMSO) 958 nM; (1% in DMSO) 699 nM; (10% in DMSO) 1630 nM.

Regarding `CC(C)[C@@H](C(=O)N1C[C@H](O)C[C@H]1C(=O)NCc1ccc(-c2ccccc2)cc1)N1Cc2ccccc2C1=O` [Example 40, (2S,4R)—N-(biphenyl-4-ylmethyl)-4-hydroxy-1-((S)-3-methyl-2-(1-oxoisoindolin-2-yl)butanoyl)pyrrolidine-2-carboxamide], the IC50 by setting is: (0.25% in DMSO) 17500 nM; (1% in DMSO) 2360 nM; (10% in DMSO) 3920 nM.

For `CC(C)[C@@H](C(=O)N1C[C@H](O)C[C@H]1C(=O)NCc1ccc(-c2ccn[nH]2)cc1)N1Cc2ccccc2C1=O` [Example 41, (2S,4R)—N-(4-(1H-pyrazol-5-yl)benzyl)-4-hydroxy-1-((S)-3-methyl-2-(1-oxoisoindolin-2-yl)butanoyl)pyrrolidine-2-carboxamide], the IC50 (0.25% in DMSO) amounted to 7280 nM, the IC50 (1% in DMSO) was 1190 nM and the IC50 (10% in DMSO) was 3050 nM.

As for `Cc1ncsc1-c1ccc(CNC(=O)[C@@H]2C[C@@H](O)CN2C(=O)[C@H](C(C)C)N2Cc3cccc(Br)c3C2=O)cc1` [Example 42, (2S,4R)-1-((S)-2-(7-bromo-1-oxoisoindolin-2-yl)-3-methylbutanoyl)-4-hydroxy-N-(4-(4-methylthiazol-5-yl)benzyl)pyrrolidine-2-carboxamide], the IC50 stood at 4950 nM (1% in DMSO) and 15700 nM (10% in DMSO).

As for `Cc1ncsc1-c1ccc(CNC(=O)[C@@H]2C[C@@H](O)CN2C(=O)[C@@H](NC(=O)c2ccc(C#N)cc2)C(C)(C)C)cc1` [Example 43, (2S,4R)-1-((S)-2-(4-cyanobenzamido)-3,3-dimethylbutanoyl)-4-hydroxy-N-(4-(4-methylthiazol-5-yl)benzyl)pyrrolidine-2-carboxamide], the IC50 turned out to be 906 nM (1% in DMSO) and 1200 nM (10% in DMSO).

(Values after US10730870B2, “Compounds and methods for the enhanced degradation of targeted proteins” (Arvinas, Inc., priority 2015, dated 2020).)
